The values that follow come from patent US12453723B2, “Use of chidamide in preparing drug for treating renal fibrosis” (THE SECOND AFFILIATED HOSPITAL OF SOOCHOW UNIVERSITY, priority 2023, dated 2025).

Data set [1] has as its system PI3K/Akt signaling pathway. The experiment in a line: PI3K/Akt signaling pathway in UUO mouse model (immunoblotting). The class given is in vivo. The source says:
(§1) The PI3K-Akt signaling pathway is an intracellular signal transduction pathway which responds to extracellular signals, promotes metabolism, proliferation, cell survival, growth and angiogenesis, and participates in pathophysiological processes of multiple diseases. […] The above experimental results all verify that chidamide can inhibit the PI3K/Akt signaling pathway.
(§2) In FIG. 7, (A) the effects of chidamide onprotein expression of p-PI3K, PI3K, p-Akt and Akt in TGF-β stimulated renal tubular epithelial cell HK-2 were detected by the immunoblotting experiment; (B-C) the statistical charts showingthe effect of chidamide onp-PI3K/PI3K and p-Akt/Akt ratios in TGF-β stimulated renal tubular epithelial cell HK-2, n=3, Mean±SDs, Student's t-test, *: P<0.05; (D) the effectof chidamide on protein expression of p-PI3K, PI3K, p-Akt and Akt in UUO mouse model was detected by the immunoblotting experiment (n=4); (E) the effect of chidamide on proein expression of autophagy markers of TGF-β stimulated renal tubular epithelial cell HK-2 was detected by the immunoblotting experiment; (F) the effect of chidamide on protein expression of autophagy markers as well as p-mTOR and mTOR in UUO mouse model was detected by the immunoblotting experiment (n=4).
(In general: In western blotting, separated proteins are transferred to a membrane and probed.)

For another data set, the system named is UUO mice. Nature of the data set: Renal fibrosis mouse model (UUO): renal morphology, renal function, collagen deposition, fibrosis markers. The class given is in vivo. The text has this: In this example, a renal fibrosis mouse model (UUO: Unilateral Uretera Obstruction, renal interstitial fibrosis model) was constructed through UUO surgery at the same time. On the 7th day after surgery, the protein expression of HDAC1/2/3/10 in test group (UUO) and control group (Sham) was detected respectively through immunoblotting and immunohistochemical tests.
In this example, mice were divided into 7 groups at random with 7 mice in each group, which were Sham group (sham), Sham+chidamide group (Sham-Chi 10 mg/kg/d), model group (UUO), UUO+Enacept positive control group (UUO-En 10 mg/kg/d), UUO+chidamide low-dose administration group (UUO-Chi 1 mg/kg/d), UUO+chidamide medium-dose administration group (UUO-Chi 5 mg/kg/d) and UUO+chidamide high-dose administration group (UUO-Chi 10 mg/kg/d), respectively. All drugs were administrated by gavage 3 days before modeling, once a day, until 7 days after surgery. Mice were weighed everyday after surgery, and then growth curves were plotted. After administration was ended, the mice were anesthetized, the eye sockets were removed and bloods were collected for the detection of serum creatinine (Scr) and urea nitrogen (BUN). At the same time, left and right kidneys were taken and then weighed after hydronephrosis was removed, so as to obtain the renal weight indexes of the obstructed kidneys in mice (kidney weight/mouse weight at the obstructed side). The photos were taken.
In FIG. 3, (A) the weight growth curve of mice verified the effect of UUO modeling and intragastric administration of chidamide on mouse weight, n=7, Mean±SDs, Student's t-test, ns: not significant; (B) the renal weight index change of mice (the statistical chart above, n=4, Mean±SDs, Student's t-test, *: P<0.05, **: P<0.01, ****: P<0.0001, ns: not significant) and renal tissue in vitro photos (below) verified the effect of chidamide on renal morphological changes of UUO mice; (C-D) mouse creatinine (C) and urea nitrogen (D) changes verified the effect of chidamide on renal functions of UUO mice, n=5-6, Mean±SDs, Student's t-test, *: P<0.05, **: P<0.01, ***: P<0.001, ns: not significant.
In the above constructed UUO mouse model of this example, the effect of chidamide on renal interstitial collagen fiber deposition was detected further by Masson staining.
In FIG. 4, (A-B) the deposition of renal interstitial collagen fibers was detected after UUO modeling and chidamide was administrated, (A) a typical picture for Masson staining; (B) the statistical results of Masson staining area proportion, n=6, Mean±SDs, Student's t-test, *: P<0.05, **: P<0.01, ****: P<0.0001, ns: not significant.
In this example, the improvement effect of chidamide on UUO renal fibrosis was further detected. In the above constructed UUO mouse model of this example, the effect of chidamide on protein expression of renal fibrosis markers was detected respectively by immunohistochemistry and immunoblotting experiments, and the change in fibrosis marker mRNA was detected by the qPCR experiment. […]

Data set [2] deals with TGF-β stimulated renal tubular epithelial cells HK-2. Nature of the data set: PI3K inhibitor LY 294002 and chidamide on fibrosis markers Collagen I and α-SMA in TGF-β stimulated HK-2 (immunoblotting). The class given is cell-based. The settings on record: FIG. 8B. The source says: Subsequently, this example further investigated the change of chidamide on fibrosis markers after LY 294002 treatment was used in TGF-β stimulated renal tubular epithelial cells HK-2. […] The above experimental results initially verify that chidamide is very likely to inhibit the progression of renal fibrosis through the PI3K/Akt signaling pathway.
In FIG. 8, (A) the effect of different concentrations of LY 294002 (LY) on protein expression of fibrosis markers Collagen I and α-SMA in TGF-β stimulated renal tubular epithelial cells HK-2 was detected by the immunoblotting experiment; (B) the effect of LY 294002 (LY) on fibrosis marker Collagen I and α-SMA protein expression by chidamide was detected in TGF-β stimulated renal tubular epithelial cells HK-2 by the immunoblotting experiment.

The test system is the same in data set [3]. The experiment in a line: Fibrosis markers in TGF-β stimulated HK-2 cells (immunoblotting, qPCR). The class given is cell-based. The following applies: different concentrations of chidamide. How it is done: Example 1 verified that HDAC1/2/3/10 can participate in renal fibrosis, and example 2 further explored the effect of chidamide on renal fibrosis in TGF-β stimulated renal tubular epithelial cells. In example 2, cells were treated by using different concentrations of chidamide and then stimulated by adding TGF-β, and the protein expression and mRNA levels of fibrosis markers were detected respectively by using immunoblotting and qPCR experiments.
In FIG. 2, (A) the effect of different concentrations of chidamide on protein expression of fibrosis markers α-SMA and Vimentin (Vim) in TGF-β stimulated HK-2 cells was detected by the immunoblotting experiment; (B-C) the statistical results of α-SMA and Vimentin in FIG. A in 3 biological duplications, Mean±SDs, Student's t-test, *: P<0.05; **: P<0.01; (D-E) the effect of different concentrations of chidamide on […] experiment in TGF-β stimulated HK-2 cells, and the statistical resultsare 3 technical duplications, Mean±SD, Student's t-test, *: P<0.05, **: P<0.01, ***: P<0.001, ****: P<0.0001.

The test system of data set [4] is PI3K/Akt signaling pathway. Nature of the data set: PI3K/Akt signaling pathway in TGF-β stimulated HK-2 cells (immunoblotting). In kind it is cell-based.
Excerpt: as §1, §2

With `Nc1cc(F)ccc1NC(=O)c1ccc(CNC(=O)/C=C/c2cccnc2)cc1` [chidamide, N-(2-amino-4-fluorophenyl)-4-[N-[(E)-3-(3-pyridine)acryloyl]aminomethyl]benzamide], in data set [1] (FIG. 7D), the p-Akt/Akt ratio entry is “significantly reduced” and the p-PI3K/PI3K ratio result was “significantly reduced”. In data set [1] (FIG. 7F), the “autophagy flow (autophagy markers)” value was “restore an autophagy flow” and the p-mTOR/mTOR ratio entry was “reduce”. For the same molecule, the “serum creatinine (Scr)” value in the data set with UUO mice (UUO mice after chidamide administration, FIG. 3C) is recorded as “obviously fall back”. The “urea nitrogen (BUN)” value with UUO mice (UUO mice after chidamide administration, FIG. 3D) is on record as “obviously fall back”. Also, in the data set with UUO mice (UUO mice, Masson staining, FIG. 4), the “renal interstitial collagen fiber deposition” value is recorded as “significantly improved”. The “protein expression of renal fibrosis markers” value with UUO mice (UUO mouse renal tissues, immunohistochemistry and immunoblotting, FIGS. 5A-E) is on record as “significantly fall back”. In the data set with UUO mice (UUO mouse renal tissues, qPCR, FIGS. 5F-I), the “mRNA of renal fibrosis markers” value is “significantly fall back”. The “ureteral dilation degree and renal tissue squeezing degree” value in the data set with UUO mice (UUO+chidamide group compared with UUO group, FIG. 3B) is “less than those in corresponding UUO group”. In addition, the “obstruction renal weight index (kidney weight/mouse weight at the obstructed side)” value in the data set with UUO mice (UUO+chidamide group compared with UUO group, gavage, FIG. 3B) is reported as “significantly decreased”. Also, the “weight growth curve of mice” value in the data set on UUO mice (intragastric administration at various doses (1, 5, 10 mg/kg/d), once a day, 3 days before modeling until 7 days after surgery, FIG. 3A) is given as “did not affect the growth of mice”. For the same molecule, the “expression of fibrosis markers Collagen I and α-SMA” value in data set [2] (TGF-β stimulated HK-2, chidamide with PI3K inhibitor LY 294002 used simultaneously) is reported as “cannot affect the expression of fibrosis markers any more”. Also, the “protein expression of fibrosis markers Collagen I and α-SMA” value in data set [2] (TGF-β stimulated HK-2, used alone) is listed as “can inhibit”. For the same molecule, the “protein expression of fibrosis markers (α-SMA, Vimentin)” value in data set [3] (immunoblotting, FIG. 2A-C) was “significantly decreased”. Further, the “mRNA level of fibrosis markers (α-SMA, Vimentin)” value in data set [3] (qPCR, FIG. 2D-E) is “significantly decreased”. Further, the “autophagy flow (autophagy markers)” value in data set [4] (FIG. 7E) was “restore an autophagy flow”. In data set [4] (FIGS. 7A-C), the p-Akt/Akt ratio result is given as “significantly reduced” and the p-PI3K/PI3K ratio result is “significantly reduced”.
